Tested on: myosin heavy chain (MHC) protein in C2C12 myotubes
Assay: Muscle cell assay: oxidative modification of myosin heavy chain protein after electrical pulse stimulation (OXYBLOT)
Type: cell-based, Mouse
Experimental: Mouse C2C12 myoblasts were purchased from American Type Culture Collection (ATCC; Manassas, Va.) and grown to 90% confluence in high glucose Dubecco's Modified Eagle media (DMEM) with 10% fetal bovine serum (FBS). Myoblasts from the purchased lot were grown in T75 flasks and passaged >5 times prior to plating in collagen coated six-well plates for experimentation. To induce myotube differentiation FBS was replaced with 2% horse serum for 5 days. Myoblasts were grown and myotubes were maintained without antibiotics in a 37° C., 5% CO2 incubator. Western blot analysis for myosin heavy chain (MHC) protein indicated expression by day five with maintenance of steady state protein levels through day eight of differentiation. Electrical pulsing was applied to the myotubes using a C-Pace EP Cell Culture Stimulator (IonOptix; Milton, Mass.). Cells were stimulated to visibly and repetitively contract for 90 minutes at a pulse frequency of 0.5 Hz and a pulse duration of 24 ms. Immediately prior to stimulation, day old media was removed and replaced with 5 ml of fresh differentiation media. Myotubes were lysed and proteins were derivatized to 2,4-dinitrophenylhydrazone (DNP; OXYBLOT method). […] Protein bands were visualized and quantified with a Bio-Rad Chemidoc XRS system. […]

Cc1c(C)c2c(c(C)c1O)CCC(C)(C(=O)O)O2 (centres unmarked) [TROLOX, 6-hydroxy-2,5,7,8-tetramethylchroman-2-carboxylic acid]
Oxidative modification of MHC protein reduced (% of EPS alone) (1 mM TROLOX pre-treatment approx. 18 h prior and again immediately before EPS, 90 min EPS at 0.5 Hz, 24 ms, five independent experiments, FIG. 4): 42±15%
Oxidative modification of myosin heavy chain protein compared to electrical pulse stimulation alone (FIG. 4) (incubated with 1 mM TROLOX and subjected to electrical pulse stimulation): reduced oxidative modification

— patent publication US20110263697A1, “Methods of Reducing Oxidative Modification of a Muscle Cell Protein” (STOKELY-VAN CAMP, INC., priority 2010, published 2011)
